Measured values: patent US20210188843A1, “QUINOLINE COMPOUNDS AND THEIR PREPARATION AND USE AS ANTIMALARIAL AGENTS” (The United States of America,as represented by the …, priority 2018, published 2021)
Converted amounts (≈) assume the structure as drawn. Like-named read-outs stand apart in the source and are kept apart here.

Tests used:
[1] = tested on: Asexual parasites of P. falciparum strain 3D7; experiment: In vitro drug activity on asexual parasites (SYBR Green assay); type: cell-based; details: Plasmodium falciparum, P. falciparum 3D7 asexual stage, 72 h, read-out: Asexual EC50
How it was run: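 3D7 asexual cultures at 0.5% parasitemia and 2% hematocrit were exposed to drug (DMSO <0.5%) for 72 h under standard culture conditions, in duplicate with no-drug and RBC-only controls. After freeze-thaw lysis, SYBR Green I lysis buffer was added for 30 min at room temperature; fluorescence was read at 490 nm excitation/520 nm emission.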

PAMPA permeability = type: in vitro ADME
Solubility pH 7.4 = type: physicochemical; details: aqueous buffer
[2] = Microsomal stability (rat); type: in vitro ADME; details: rat microsomes
[3] = Table 3, read-out: Microsomal Stability (rat) T1/2
[4] = Table 1, read-out: Microsomal Stability (rat) T1/2

Row | Structure (SMILES) | EC50 ([1]; Table 3) | Papp (PAMPA permeability; Table 3) | solubility (Solubility pH 7.4; Table 3) | half-life [2, 3] | EC50 ([1]; Table 1) | Papp (PAMPA permeability; Table 1) | solubility (Solubility pH 7.4; Table 1) | half-life [2, 4]
1 | Cn1c(=N)n(-c2cncnc2)c2c3cc(-c4ccc(Cl)cc4)ccc3ncc21 | 220 nM | 397 ×10⁻⁶ cm/s | 16.3 µg/mL (≈ 42.1 µM) | > 30 min |  |  |  | 
2 | Cc1ccc(-c2ccc3ncc4c(c3c2)n(-c2cncnc2)c(=N)n4C)cn1 | 190 nM | 136 ×10⁻⁶ cm/s | > 54 µg/mL | > 30 min |  |  |  | 
3 | COc1ccc(-c2ccc3ncc4c(c3c2)n(-c2cncnc2)c(=N)n4C)cn1 | 1050 nM | 684 ×10⁻⁶ cm/s | 34.5 µg/mL (≈ 90 µM) | > 30 min |  |  |  | 
4 | Cc1ccc(C#N)cc1-n1c(=N)n(C)c2cnc3ccc(-c4ccnn4C)cc3c21 [Compound 5, 3-(2-imino-3-methyl-8-(1-methyl-1H-pyrazol-5-yl)-2,3-dihydro-1H-imidazo[4,5-c]quinolin-1-yl)-4-methylbenzonitrile] |  |  |  |  | 154 nM | 219 ×10⁻⁶ cm/s | 42.5 µg/mL (≈ 108 µM) | > 30 min
5 | C/N=c1\n(C)c2cnc3ccc(-c4ccc(Cl)cc4)cc3c2n1-c1cc(C#N)ccc1C [Compound 6, (E)-3-(8-(4-chlorophenyl)-3-methyl-2-(methylimino)-2,3-dihydro-1H-imidazo[4,5-c]quinolin-1-yl)-4-methylbenzonitrile] |  |  |  |  | 279 nM | 921 ×10⁻⁶ cm/s | 9.6 µg/mL (≈ 21.9 µM) | > 30 min
6 | Cc1ccc(C#N)cc1-n1c(=N)n(C)c2cnc3ccc(-c4ccc(F)cc4)cc3c21 [Compound 12, 3-(8-(4-fluorophenyl)-2-imino-3-methyl-2,3-dihydro-1H-imidazo[4,5-c]quinolin-1-yl)-4-methylbenzonitrile] |  |  |  |  | 64.4 nM | 1030 ×10⁻⁶ cm/s | 3.9 µg/mL (≈ 9.57 µM) | > 30 min
7 | CSc1ccc(C#N)cc1-n1/c(=N/C#N)n(C)c2cnc3ccc(-c4ccc(Cl)cc4)cc3c21 [Compound 18, (E)-N-(8-(4-chlorophenyl)-1-(5-cyano-2-(methylthio)phenyl)-3-methyl-1,3-dihydro-2H-imidazo[4,5-c]quinolin-2-ylidene)cyanamide] |  |  |  |  | 564 nM | 247 ×10⁻⁶ cm/s | < 1 µg/mL | 16.9 min
8 | Cc1nc(N2CCOCC2)c(C#N)cc1-n1c(=N)n(C)c2cnc3ccc(-c4ccc(Cl)cc4)cc3c21 [Compound 21, 5-(8-(4-chlorophenyl)-2-imino-3-methyl-2,3-dihydro-H-imidazo[4,5-c]quinolin-1-yl)-6-methyl-2-morpholinonicotinonitrile] |  |  |  |  | 317 nM | 1560 ×10⁻⁶ cm/s | 4.4 µg/mL (≈ 8.63 µM) | > 30 min
9 | Cc1ccc(C#N)cc1-n1c(=N)n(C)c2cnc3ccc(-c4cccc(CN(C)C)c4)cc3c21 [Compound 24, 3-(8-(3-((dimethylamino)methyl)phenyl)-2-imino-3-methyl-2,3-dihydro-1H-imidazo[4,5-c]quinolin-1-yl)-4-methylbenzonitrile] |  |  |  |  | 980 nM | 405 ×10⁻⁶ cm/s | > 44 µg/mL | > 30 min
10 | Cc1ccc(C#N)cc1-n1c(=N)n(C)c2cnc3ccc(-c4cccc(C#N)c4)cc3c21 [Compound 25, 3-(8-(3-cyanophenyl)-2-imino-3-methyl-2,3-dihydro-1H-imidazo[4,5-c]quinolin-1-yl)-4-methylbenzonitrile] |  |  |  |  | 118 nM | 1430 ×10⁻⁶ cm/s | > 41 µg/mL | > 30 min
11 | Cn1c(=N)n(-c2cccc(C(F)(F)F)c2)c2c3cc(-c4ccc(Cl)cc4)ccc3ncc21 [Compound 26, 8-(4-chlorophenyl)-3-methyl-1-(3-(trifluoromethyl)phenyl)-1,3-dihydro-2H-imidazo[4,5-c]quinolin-2-imine] |  |  |  |  | 529 nM | 1670 ×10⁻⁶ cm/s | < 1 µg/mL | > 30 min
12 | Cc1ccc(C(F)(F)F)cc1-n1c(=N)n(C)c2cnc3ccc(-c4ccc(Cl)cc4)cc3c21 [Compound 27, 8-(4-chlorophenyl)-3-methyl-1-(2-methyl-5-(trifluoromethyl)phenyl)-1,3-dihydro-2H-imidazo[4,5-c]quinolin-2-imine] |  |  |  |  | 138 nM | 1610 ×10⁻⁶ cm/s | < 1 µg/mL | > 30 min
13 | Cn1c(=N)n(-c2cccc(Cl)c2)c2c3cc(-c4ccc(Cl)cc4)ccc3ncc21 [Compound 28, 1-(3-chlorophenyl)-8-(4-chlorophenyl)-3-methyl-1,3-dihydro-2H-imidazo[4,5-c]quinolin-2-imine] |  |  |  |  | 186 nM | 226 ×10⁻⁶ cm/s | < 1 µg/mL | > 30 min
14 | Cc1ccc(Cl)cc1-n1c(=N)n(C)c2cnc3ccc(-c4ccc(Cl)cc4)cc3c21 [Compound 29, 1-(5-chloro-2-methylphenyl)-8-(4-chlorophenyl)-3-methyl-1,3-dihydro-2H-imdazo[4,5-c]quinolin-2-imine] |  |  |  |  | 136 nM | 1680 ×10⁻⁶ cm/s | < 1 µg/mL | > 30 min
15 | COc1cccc(-c2ccc3ncc4c(c3c2)n(-c2cc(C#N)ccc2C)c(=N)n4C)c1 [Compound 32, 3-(2-imino-8-(3-methoxyphenyl)-3-methyl-2,3-dihydro-H-imidazo[4,5-c]quinolin-1-yl)-4-methylbenzonitrile] |  |  |  |  | 420 nM | 678 ×10⁻⁶ cm/s | > 42 µg/mL | > 30 min
16 | Cc1ccc(C#N)cc1-n1c(=N)n(C)c2cnc3ccc(-c4cccc(Cl)c4)cc3c21 [Compound 33, 3-(8-(3-chlorophenyl)-2-imino-3-methyl-2,3-dihydro-1H-imidazo[4,5-c]quinolin-1-yl)-4-methylbenzonitrile] |  |  |  |  | 297 nM | 1820 ×10⁻⁶ cm/s | 14.5 µg/mL (≈ 34.2 µM) | > 30 min
17 | Cc1cccc(-c2ccc3ncc4c(c3c2)n(-c2cc(C#N)ccc2C)c(=N)n4C)c1 [Compound 36, 3-(2-imino-3-methyl-8-(m-tolyl)-2,3-dihydro-1H-imidazo[4,5-c]quinolin-1-yl)-4-methylbenzonitrile] |  |  |  |  | 158 nM | 1150 ×10⁻⁶ cm/s | > 40 µg/mL | 27 min

The remaining lines, values ahead:

Row | EC50 ([1]; Table 3) | Papp (PAMPA permeability; Table 3) | solubility (Solubility pH 7.4; Table 3) | half-life [2, 3] | EC50 ([1]; Table 1) | Papp (PAMPA permeability; Table 1) | solubility (Solubility pH 7.4; Table 1) | half-life [2, 4] | Structure (SMILES)
18 |  |  |  |  | 11.9 nM | 34.1 ×10⁻⁶ cm/s | 3.7 µg/mL (≈ 8.6 µM) | > 30 min | Cc1ccc(C#N)cc1-n1/c(=N/C#N)n(C)c2cnc3ccc(-c4ccc(N)nc4)cc3c21 [Compound 4, (E)-N-(8-(6-aminopyridin-3-yl)-1-(5-cyano-2-methylphenyl)-3-methyl-1,3-dihydro-2H-imidazo[4,5-c]quinolin-2-ylidene)cyanamide]
19 |  |  |  |  | 59.8 nM | 1190 ×10⁻⁶ cm/s | < 1 µg/mL | > 30 min | Cc1ccc(C#N)cc1-n1/c(=N/C#N)n(C)c2cnc3ccc(-c4ccc(Cl)cc4)cc3c21 [Compound 8, (E)-N-(8-(4-chlorophenyl)-1-(5-cyano-2-methylphenyl)-3-methyl-1,3-dihydro-2H-imidazo[4,5-c]quinolin-2-ylidene)cyanamide]
20 |  |  |  |  | 38.5 nM | 526 ×10⁻⁶ cm/s | < 1 µg/mL | > 30 min | CCC(=O)/N=c1\n(C)c2cnc3ccc(-c4ccc(Cl)cc4)cc3c2n1-c1cc(C#N)ccc1C [Compound 9, (E)-N-(8-(4-chlorophenyl)-1-(5-cyano-2-methylphenyl)-3-methyl-1,3-dihydro-2H-imidazo[4,5-c]quinolin-2-ylidene)propionamide]
21 |  |  |  |  | 48.2 nM | 1000 ×10⁻⁶ cm/s | 3.1 µg/mL (≈ 7.56 µM) | > 30 min | Cn1c(=N)n(-c2cccc(C#N)c2)c2c3cc(-c4ccc(Cl)cc4)ccc3ncc21 [Compound 11, 3-(8-(4-chlorophenyl)-2-imino-3-methyl-2,3-dihydro-1H-imidazo[4,5-c]quinolin-1-yl)benzonitrile]
22 |  |  |  |  | 63.9 nM | 340 ×10⁻⁶ cm/s | < 1 µg/mL | > 30 min | Cc1cc(N2CCOCC2)c(C#N)cc1-n1c(=N)n(C)c2cnc3ccc(-c4ccc(Cl)cc4)cc3c21 [Compound 23, 5-(8-(4-chlorophenyl)-2-imino-3-methyl-2,3-dihydro-1H-imidazo[4,5-c]quinolin-1-yl)-4-methyl-2-morpholinobenzonitrile]
23 |  |  |  |  | 60.3 nM | 1210 ×10⁻⁶ cm/s | 7.3 µg/mL (≈ 16.3 µM) | > 30 min | Cc1ccc(C#N)cc1-n1c(=N)n(C)c2cnc3ccc(-c4ccc(Cl)c(C#N)c4)cc3c21 [Compound 30, 2-chloro-5-(1-(5-cyano-2-methylphenyl)-2-imino-3-methyl-2,3-dihydro-1H-imidazo[4,5-c]quinolin-8-yl)benzonitrile]
24 |  |  |  |  | 27.2 nM | 433 ×10⁻⁶ cm/s | < 1 µg/mL | > 30 min | COc1cc(-c2ccc3ncc4c(c3c2)n(-c2cc(C#N)ccc2C)c(=N)n4C)ccc1Cl [Compound 31, 3-(8-(4-chloro-3-methoxyphenyl)-2-imino-3-methyl-2,3-dihydro-1H-imidazo[4,5-c]quinolin-1-yl)-4-methylbenzonitrile]
25 |  |  |  |  | 47.3 nM | 852 ×10⁻⁶ cm/s | > 40 µg/mL | > 30 min | Cc1ccc(C#N)cc1-n1c(=N)n(C)c2cnc3ccc(-c4cccc(F)c4)cc3c21 [Compound 34, 3-(8-(3-fluorophenyl)-2-imino-3-methyl-2,3-dihydro-1H-imidazo[4,5-c]quinolin-1-yl)-4-methylbenzonitrile]
26 |  |  |  |  | 34 nM | 716 ×10⁻⁶ cm/s | > 39 µg/mL | > 30 min | Cc1ccc(C#N)cc1-n1c(=N)n(C)c2cnc3ccc(-c4ccccc4)cc3c21 [Compound 35, 3-(2-imino-3-methyl-8-phenyl-2,3-dihydro-1H-imidazo[4,5-c]quinolin-1-yl)-4-methylbenzonitrile]
27 |  |  |  |  | 46.1 nM | 10.3 ×10⁻⁶ cm/s | > 40 µg/mL | > 30 min | Cc1ccc(C#N)cc1-n1c(=N)n(C)c2cnc3ccc(-c4cccc(O)c4)cc3c21 [Compound 37, 3-(8-(3-hydroxyphenyl)-2-imino-3-methyl-2,3-dihydro-1H-imidazo[4,5-c]quinolin-1-yl)-4-methylbenzonitrile]
